Source: patent EP2067861A1, “Animals of the rattus genus wherein msh6 expression is functionally decreased and methods for the generation of specific mutants therefrom” (Koninklijke Nederlandse Akademie van Wetenschappen, priority 2007, dated 2009)

System: Male MSH6 knockout rats (Msh6^1Hubr)
Assay: ENU-induced germ line mutation discovery by resequencing 768 amplicons in F1 progeny
Format: in vivo, rat
Description: All experiments were approved by the Animal Care Committee of the Royal Dutch Academy of Science according to the Dutch legal ethical guidelines. Experiments were designed to minimize the number of required animals and their suffering. Male MSH6 knockout rats (Msh6^1Hubr) of 12 weeks of age were given three weekly intraperitoneal injections of 25, 30 and 35 mg/kg bodyweight ENU. Preparation of ENU (Isopac; Sigma) was done as decribed (for detailed description, see (Smits et al. (2006) Pharmacogenet Genomics 16, 159-69) After the treatment the injected males were monitored for fertility by breeding with one or two females. Pups from these early matings were counted, but not analyzed. Ten weeks after the last injection, fertile males of the highest-dosed fertile group were kept on a weekly breeding scheme with two females to produce F1 progeny for mutational analysis. Animals were housed under standard conditions in groups of two to three per cage per gender under controlled experimental conditions (12-h light/dark cycle, 21±1°C, 60% relative humidity, food and water ad libitum).
At two weeks of age F1 progeny were uniquely tagged by fetching ear clips. Ear clips were lysed for at least 2 hours at 55°C and 1400 rpm in a Thermomixer comfort (Eppendorf) in 400 µl lysisbuffer (100 mM Tris (pH 8.5), 200 mM NaCl, 0.2% SDS, 5 mM EDTA and 100 µg/ml of freshly added Proteinase K) followed by phenol/chloroform (1:1, vol/vol) extraction. The DNA was precipitated by adding 300 µl isopropanol, mixing and centrifuging for 20 min, at 21,000 g at 4°C. The supernatant was discarded and pellets were washed with 70% ethanol and dissolved in 500 µl MQ.
768 pre-selected amplicons were amplified using a nested PCR setup. The first PCR was carried out using a touchdown thermocycling program (94°C for 60 sec; 15 cycles of 92°C for 30 sec, 65°C for 30 sec with a decrement of 0.6°C per cycle, 72°C for 60 sec; followed by 30 cycles of 92°C for 30 sec, 58°C for 30 sec and 72°C for 60 sec; 72°C for 180 sec; GeneAmp9700, Applied Biosystems). The PCR reaction contained ±100 ng DNA, 0.2 µM of each forward primer and 0.2 µM of each reverse primer, 400 µM of each dNTP, 25 mM tricine, 7.0% glycerol (w/v), 1.6% dimethyl sulfoxide (DMSO) (w/v), 2 mM MgCl2, 85 mM ammonium acetate pH 8.7 and 0.2 U Taq Polymerase in a total volume of 5 µl. After thermocycling, the PCR1 reactions were diluted with 20 µl H2O and 1 µl was used as template for the second round of PCR. The second PCR was done using a standard thermocycling program (94°C for 60 sec; 35 cycles of 92°C for 20 sec, 58°C for 30 sec and 72°C for 60 sec; 72°C for 180 sec; GeneAmp9700, Applied Biosystems). PCR2 mixes contained 1 µl diluted PCR1 template, 0.1 µM forward primer, 0.1 µM reverse primer, 100 µM of each dNTP, 25 mM tricine, 7.0% glycerol (w/v), 1.6% DMSO (w/v), 2 mM MgCl2, 85 mM ammonium acetate pH 8.7 and 0.1 U Taq Polymerase in a total volume of 5 µl. Several samples of each plate were tested on a 1% agarose gel containing ethidium bromide for the presence of the proper PCR fragment. PCR2 products were diluted with 20 µl H2O and 1 µl was directly used as a template for the sequencing reactions. Sequencing reactions contained 0.1 µl BigDye (v3.1; Applied Biosystems), 1.9 µl BigDye Dilution Buffer (Applied Biosystems) and 0.4 µM of the forward primers used for the PCR2 reaction in a total volume of 5 µl. The thermocycling program that was recommended by the manufacturer was used for the sequence reactions (40 cycles of 94°C for 10 sec, 50°C for 5 sec and 60°C for 120 sec). Sequencing products were purified by ethanol precipitation in the presence of 40 mM sodium-acetate and analyzed on a 96-capillary 3730XL DNA analyzer (Applied Biosystems), using the standard RapidSeq protocol on 36 cm array. Sequences were analyzed for the presence of heterozygous mutations using PolyPhred (Nickerson et al. (1997) Nucleic Acids Res. 25, 2745-51) and in-house developed software. […]

[1] = 3 x 30 mg/kg bodyweight ENU, animals born 14 - 16 weeks after the ENU injection
[2] = 94 coding mutations, all MSH6^-/- dose groups
[3] = ENU mutation spectrum, MSH6 deficient compared to proficient background
[4] = MSH6^-/- 3 x 25 mg/kg ENU, 16 pups, 3.57 x 10^6 bases screened
[5] = MSH6^-/- 3 x 30 mg/kg ENU, 291 pups, 69.66 x 10^6 bases screened
[6] = MSH6^-/- 3 x 35 mg/kg ENU, 3 pups, 0.72 x 106 bases screened
[7] = MSH6^-/- Total of the three dose groups

Compound: CCN(N=O)C(N)=O [ENU, N-ethyl-N-nitrosourea]
- Mutation Frequencies (3 x 30 mg/kg bodyweight ENU, F1 born 14 - 16 weeks after last injection): 1.88 x 10^-6
- # Mutations (3 x 30 mg/kg bodyweight ENU, F1 born 14 - 16 weeks after last injection, 59 pups, 14.92 x 10^6 bases screened): 28
- Mutation Frequencies (3 x 30 mg/kg bodyweight ENU, F1 born 17 - 19 weeks after last injection): 1.65 x 10^-6
- # Mutations (3 x 30 mg/kg bodyweight ENU, F1 born 17 - 19 weeks after last injection, 62 pups, 13.30 x 106 bases screened): 22
- Mutation Frequencies (3 x 30 mg/kg bodyweight ENU, F1 born 20 - 22 weeks after last injection): 1.24 x 10^-6
- # Mutations (3 x 30 mg/kg bodyweight ENU, F1 born 20 - 22 weeks after last injection, 67 pups, 15.34 x 10^6 bases screened): 19
- Mutation Frequencies (3 x 30 mg/kg bodyweight ENU, F1 born 23 - 25 weeks after last injection): 9.92 x 10^-7
- # Mutations (3 x 30 mg/kg bodyweight ENU, F1 born 23 - 25 weeks after last injection, 64 pups, 16.14 x 10^6 bases screened): 16
- mutation frequency (3 x 30 mg/kg bodyweight ENU, F1 born 23 weeks after the last injection or later): approximately 1.0 x 10^-6 per base pair
- Mutation Frequencies (3 x 30 mg/kg bodyweight ENU, F1 born 26 - 29 weeks after last injection): 1.10 x 10^-6
- # Mutations (3 x 30 mg/kg bodyweight ENU, F1 born 26 - 29 weeks after last injection, 39 pups, 9.97 x 10^6 bases screened): 11
- mutation frequency [1]: 1.88 x 10^-6 per base pair
- mutation rate (1 mutation every ... base pairs) [1]: 5.3 x 10^5 base pairs
- mutation frequency (3 x 30 mg/kg bodyweight ENU, animals born 17 - 19 weeks after the last ENU injection): 1.65 x 10^-6 per base pair
- mutation frequency (3 x 30 mg/kg bodyweight ENU, animals born 20 - 22 weeks after the last ENU injection): 1.24 x 10^-6 per base pair
- missense mutations, share of coding mutations [2]: ~74%
- nonsense mutations, share of coding mutations [2]: ~4%
- silent mutations, share of coding mutations [2]: ~21%
- percentage of A:T to G:C transitions [3]: significantly decreased
- percentage of G:C to A:T transitions [3]: significantly increased
- percentages of transversions [3]: No significant change
- # Mutations - non-coding (MSH6^-/- 3 x 25 mg/kg ENU): 0
- # Mutations - silent (MSH6^-/- 3 x 25 mg/kg ENU): 1
- # Mutations - missense [4]: 4
- # Mutations - nonsense [4]: 0
- # Mutations - total [4]: 5
- Mutation Frequencies (MSH6^-/- 3 x 25 mg/kg ENU, F1 progeny): 1.40 x 10^-6
- # Mutations - non-coding (MSH6^-/- 3 x 30 mg/kg ENU): 8
- # Mutations - silent (MSH6^-/- 3 x 30 mg/kg ENU): 19
- # Mutations - missense [5]: 65
- # Mutations - nonsense [5]: 4
- # Mutations - total [5]: 96
- Mutation Frequencies (MSH6^-/- 3 x 30 mg/kg ENU, F1 progeny): 1.38 x 10^-6
- # Mutations - non-coding (MSH6^-/- 3 x 35 mg/kg ENU): 0
- # Mutations - silent (MSH6^-/- 3 x 35 mg/kg ENU): 0
- # Mutations - missense [6]: 1
- # Mutations - nonsense [6]: 0
- Mutation Frequencies (MSH6^-/- 3 x 35 mg/kg ENU, F1 progeny): 1.38 x 10^-6
- # Mutations - missense [7]: 70
- # Mutations - non-coding [7]: 8
- # Mutations - silent [7]: 20
- # Mutations - total (MSH6^-/- Total of the three dose groups, 310 pups, 73,95 x 10^6 bases screened): 102
- increase of mutation rate compared to control animals (MSH6 deficient 3 x 30 mg/kg ENU versus control 3 x 40 mg/kg): 1.7 x
- mutation rate (1 mutation every ... base pairs) (MSH6 deficient, 3 x 30 mg/kg bodyweight ENU, 291 F1 progeny, almost 70 Mb): 7.26 x 10^5 base pairs
- mutations in coding regions (of the 102 mutations found, all MSH6^-/- dose groups): 94
